Experimental data taken from the METLIN SMRT retention time set (Domingo-Almenara et al. 2019).

Experiment: gradient 5% acetonitrile 3 min, to 50% in 2 min, to 85% in 15 min, held 3 min, 100 µL/min
Details: column: Zorbax Extend-C18 2.1 x 50 mm; eluents: water / acetonitrile, 0.1% formic acid
Method in brief: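 Values are retention times taken from adduct peaks that software picked and an analyst inspected. The pure standards were run as mixtures of ~100 molecules on HPLC linked to a quadrupole time-of-flight mass spectrometer, in positive and negative ionization mode. A Zorbax Extend-C18 column (2.1 × 50 mm, 1.8 μm) was used at 100 μL/min with water and acetonitrile, each including 0.1% formic acid.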

Compound | RP-LC retention time
COc1ccccc1-n1ncc2c(C(C)C)nnc(SCC(=O)NCc3ccco3)c21 | 729 s
Cc1oc(C(C)C)nc1C(=O)NCc1cccc(C(F)(F)F)c1 | 1080 s
CCOC(=O)c1c(C)[nH]c(C(=O)N2CCC(C(C)C(=O)NCc3ccc4c(c3)OCO4)CC2)c1C (stereo not drawn) | 778 s
O=C(Nc1ccc(C(F)(F)F)cc1)Nc1cccc(-c2nccnc2N2CCOCC2)c1 | 956 s
CC(CNC(=O)C1CCN(S(=O)(=O)c2ccc3c(c2)CCCC(=O)N3)CC1)c1ccccc1 (stereo not drawn) | 766 s
O=C(COc1ccc(Cl)cc1Cl)Nc1nnc(-c2ccncc2)o1 | 669 s
O=C(NCCCn1nc(-c2ccco2)ccc1=O)c1cc(Cl)ccc1Cl | 737 s
CC(=O)N1CCc2sc(S(=O)(=O)N3CCN(c4ccc(C)cc4)CC3)cc2C1 | 926 s
Cc1ccc(NC(=O)Nc2nc(C(=O)N3CCN(C(=O)c4ccco4)CC3)cs2)cc1 | 704 s
O=C(C1CCN(Cc2cc3ccccc3n2Cc2cccc(F)c2)CC1)N1CCCC1 | 721 s
Cc1ccc(Nc2c(-c3ccc(N(C)C)cc3)nc3cccc(C)n23)cc1 | 816 s
Cc1ccc(F)cc1S(=O)(=O)N1CCC2(CCN(c3cccnc3)C2)C1 (stereo not drawn) | 685 s
CC1CCCCC12NCCN=C2NCc1ccc(F)cc1 (stereo not drawn) | 603 s
COc1ccc2c(c1)C1(CCN(S(=O)(=O)c3ccc4c(c3)CC(=O)N4C)C1)C(=O)N2C (stereo not drawn) | 744 s
COCC(=O)N(CC(=O)N1CCc2sccc2C1COc1ccc(Cl)cc1)C(C)(C)C (stereo not drawn) | 991 s
Cc1cc(-c2nnc(-c3ccc(F)cc3)o2)c(C)n1CC(=O)NCc1cccnc1 | 637 s
Cc1cc2c(cc1CNC(=O)c1ccco1)OCCCO2 | 750 s
COc1cccc(NC(=O)NC2CCN(c3ccc(F)c(C)c3)C2=O)c1 (stereo not drawn) | 818 s
O=C(CC(=O)N1CCN(C2CCCCC2)CC1)Nc1ccc2nc3n(c(=O)c2c1)CCCCC3 | 554 s
O=C(CN1CCN(Cc2ccc(F)cc2)C1=O)NC1CCN(Cc2ccccc2)CC1 | 618 s
O=C(Nc1cnc(-c2ccccc2)nc1)c1ccccc1C(F)(F)F | 970 s
CCOc1ccc(NC(=O)N2CCC3(CC2)NC(=O)c2cc(Cl)ccc2N3C)cc1 | 858 s

Compound | RP-LC retention time
COC(=O)c1cc2c(=O)n(-c3ccc(Cl)c(C(F)(F)F)c3)ccc2nc1C | 992 s
Cc1nnc(N2CCCC(C(=O)NC3CCCCC3)C2)c2nn(-c3ccc(Cl)cc3)c(C)c12 (stereo not drawn) | 784 s
Cc1ccccc1CC(=O)Nc1ccc2c(c1)CCC(=O)N2CC(C)C | 910 s
CC(NC(=O)c1ccccc1)c1nc(-c2ccc(NS(=O)(=O)c3cccs3)cc2)no1 (stereo not drawn) | 890 s
O=C(Nc1ccccc1-c1nc2ccccc2s1)c1ccno1 | 728 s
COc1cc(-c2noc(C3CC(=O)N(c4ccc(C)c(C)c4)C3)n2)cc(OC)c1OC (stereo not drawn) | 990 s
CCc1nnc2cc(N3CCN(S(=O)(=O)c4cccc(F)c4)CC3)cnn12 | 690 s
CCCSCCCNC(=O)COc1ccccc1-c1nnc(-c2ccccc2)o1 | 1160 s
CCn1ccc2cc(S(=O)(=O)N3CCC(C(=O)N4CCN(c5ncccn5)CC4)CC3)ccc21 | 880 s
CCCSCCCNC(=O)C1CCCN(c2nc3ccccc3n(Cc3ccccc3)c2=O)C1 (stereo not drawn) | 1200 s
CCCCC(SC1=Nc2ccccc2C2=NC(Cc3c[nH]c4ccccc34)C(=O)N12)C(=O)OCC (stereo not drawn) | 1110 s
CCn1ccc(NC(=O)c2ccc(C)cc2C)n1 | 765 s
O=C(c1ccco1)N1CCC(Oc2nc3ccc(F)cc3s2)CC1 | 902 s
CCCNC(=O)CCc1nc2ccccc2n(CC(=O)Nc2ccccc2C(=O)OC)c1=O | 843 s
Clc1cccc(-c2nc(Cn3ccnc3)no2)c1 | 629 s
O=C(C1CCN(S(=O)(=O)N2CCOCC2)CC1)N1CCC(c2nc(C3CCOCC3)no2)CC1 | 674 s
O=C(NCc1ccc2c(c1)OCO2)C1Cn2cccc2C(=O)N1Cc1ccccc1 (stereo not drawn) | 805 s
Cc1nc(-c2cn(C)c3ncccc23)sc1C(=O)NCc1ccc(F)cc1Cl | 990 s
O=S(=O)(Cc1ccc(F)cc1Cl)N1CCc2nc(-c3ccc(F)cc3)ncc2C1 | 1100 s
Cc1cc(C)c2c(N3CCSCC3)nc(C(=O)N3CCCN(C)CC3)nc2n1 | 600 s
CSc1ccc(-c2nc3c(C)cccn3c2Nc2ccccc2C)cc1 | 810 s
Cc1nnc(N2CCCC(C(=O)N3CCN(c4ccccc4)CC3)C2)c2nn(-c3ccccc3)c(C)c12 (stereo not drawn) | 759 s

Compound | RP-LC retention time
CN(C)C(CNC(=O)Nc1ccccc1C(F)(F)F)c1ccco1 (stereo not drawn) | 566 s
O=C(Nc1cnc(N2CCCCCC2)nc1)c1ccsc1 | 822 s
CC1CCc2nc3ncn(CC(=O)Nc4ccc(Cl)cc4F)c(=O)c3cc2C1 (stereo not drawn) | 858 s
O=C(Cc1ccccc1)NC1CCN(c2cc(-c3ccc(Cl)cc3)[nH]n2)C1 (stereo not drawn) | 764 s
Cc1ccc(C(=O)NCCc2nc3cccnc3n2C(C)C)cc1 | 666 s
COc1ccc(-c2nc3cnccn3c2Nc2cccc(C)c2C)cc1 | 953 s
COC(=O)c1cnc(N2CCN(c3ccccn3)CC2)c2ccccc12 | 640 s
COc1ccc(N2C(=O)C3N=NN(Cc4nc(-c5ccc(Cl)cc5)no4)C3C2=O)cc1OC (stereo not drawn) | 963 s
CCn1cnc(S(=O)(=O)N2CCCC(C(=O)Nc3cccc(C(F)(F)F)c3)C2)c1 (stereo not drawn) | 871 s
COc1cccc(CNC(=O)C2CCCN(c3nnc4ccc(Cl)cn34)C2)c1 (stereo not drawn) | 756 s
CCN1CCC(CCNC(=O)C2CN(C(=O)c3cccs3)CC23CCCCC3)CC1 (stereo not drawn) | 625 s
COc1ccc(C(=O)NCCS(=O)(=O)NCc2cccnc2)cc1 | 547 s
COc1ccccc1CCC(=O)N1CCCn2nc(-c3ccc(C)cc3)cc2C1 | 1020 s
O=C1N(C2CCN(Cc3ccccn3)CC2)C(c2ccncc2)C12CCCCC2 (stereo not drawn) | 556 s
Cc1noc(C)c1CCC(=O)N1CCCn2ccnc2C1C(C)C (stereo not drawn) | 590 s
CC1=CC(=O)CC(C)(C)C1(O)/C=C/C(C)=C/C(=O)O (stereo not drawn) | 693 s
Cc1ccc(NS(=O)(=O)c2cc(-c3nc(C(C)(C)C)cs3)cs2)c(C)c1 | 1310 s
Cc1[nH]c(C(=O)N2CCCC(C(=O)NCc3ccc4c(c3)OCO4)C2)c(C)c1C (stereo not drawn) | 804 s
CCCn1ncc(N2CCC(C(=O)NCC3CCCO3)CC2)cc1=O (stereo not drawn) | 608 s
Cc1ccc(-c2noc(-c3cccc(S(=O)(=O)Nc4ccccc4)c3)n2)cc1 | 1200 s
CCC1Oc2ccc(S(=O)(=O)N3CCC(C(=O)N(C)C4CCCCC4)CC3)cc2NC1=O (stereo not drawn) | 917 s
CCN1CCN(C(=O)c2nc3ccccn3c2-c2ccc(Cl)cc2)CC1 | 591 s

Compound | RP-LC retention time
O=C(CN1C(=O)NC2(CCCCC2)C1=O)Nc1ccc(Cl)cc1F | 809 s
COc1ccc(OC)c(NC(=O)N2CCCC(C)(C(=O)NCc3ccc(C)cc3)C2)c1 (stereo not drawn) | 932 s
CCOC(=O)c1c(C)[nH]c(CCC(=O)NC2CCCC2)c1C | 780 s
Cc1cccc(C)c1Nc1c(-c2ccc(N3CCOCC3)cc2)nc2cnccn12 | 755 s
O=C(c1nnn2c1COC(c1ccccc1)C2)N1CCN(C(=O)C2(c3ccccc3)CC2)CC1 (stereo not drawn) | 850 s
CCCCNC(=O)C1CCN(Cc2cc3ccccc3n2Cc2cccc(C)c2)CC1 | 800 s
CCc1cc(C(=O)Nc2cc(F)ccc2C)nc2ccnn12 | 1090 s
Cc1ccsc1C(=O)NCCn1c(C)cnc1C1CCC1 | 596 s
COc1ccc(-c2cc(N3CCC(NC(=O)c4ccc(Cl)cc4)C3)n[nH]2)cc1 (stereo not drawn) | 739 s
CN(C)C(=O)/N=N/C(=O)N(C)C | 597 s
CCn1cc(S(=O)(=O)Nc2ccc(C)cc2F)c2cccnc21 | 869 s
CCC(CN1CCOCC1)Nc1nc(-c2ccc(OC)cc2)nc2ccccc12 (stereo not drawn) | 570 s
COCCn1ccc2nc(C)c(C(=O)Nc3ccc4c(c3)OCCO4)cc2c1=O | 679 s
Cc1ccc(-c2nnc(Cc3nc(-c4ccccc4F)no3)o2)cc1C | 1040 s
Cc1nnc2c(=O)n(CC(=O)NCc3cccc(C(F)(F)F)c3)c3cccnc3n12 | 738 s
O=C(c1cccs1)N1CCCC(OCc2nc(C3CC3)no2)C1 (stereo not drawn) | 786 s
Cc1coc2c(C)c3oc(=O)c(CCC(=O)N4CCN(c5ccccn5)CC4)c(C)c3cc12 | 795 s
CCN(CC)S(=O)(=O)c1ccc(-n2cnc(C(=O)NCc3ccc(OC)c(OC)c3)c2)cc1 | 766 s
CCc1ccc2c(c1)-c1ccccc1S(=O)(=O)N2CC(=O)NCc1ccccn1 | 720 s
Cc1cc(Nc2ccccc2)nc(N2CCN(C(=O)Nc3ccccc3)CC2)n1 | 693 s
CC(CNC(=O)c1cn(C)nc1S(=O)(=O)N1CCSCC1)c1ccccc1 (stereo not drawn) | 1120 s
Cc1c(Cl)cccc1S(=O)(=O)N1CCCC1c1nc(-c2ccc(F)cc2)no1 (stereo not drawn) | 1220 s
